Data from PMC11208742, “5,7,4′‐Trimethoxyflavone triggers cancer cell PD‐L1 ubiquitin–proteasome degradation and facilitates antitumor immunity by targeting HRD1” (MedComm, 2024).

Target: T1, HRD1 (HMG-CoA reductase degradation protein 1) (Homo sapiens, UniProt Q86TM6)
T1 construct: gene SYVN1; GFP-tagged wild-type HRD1 expressed in 293T cells, cell lysate (MST); endogenous untagged HRD1 in RKO cell lysate (CETSA)
Test: microscale thermophoresis, GFP-HRD1
Format: binding

T1 sequence (Q86TM6 whole entry): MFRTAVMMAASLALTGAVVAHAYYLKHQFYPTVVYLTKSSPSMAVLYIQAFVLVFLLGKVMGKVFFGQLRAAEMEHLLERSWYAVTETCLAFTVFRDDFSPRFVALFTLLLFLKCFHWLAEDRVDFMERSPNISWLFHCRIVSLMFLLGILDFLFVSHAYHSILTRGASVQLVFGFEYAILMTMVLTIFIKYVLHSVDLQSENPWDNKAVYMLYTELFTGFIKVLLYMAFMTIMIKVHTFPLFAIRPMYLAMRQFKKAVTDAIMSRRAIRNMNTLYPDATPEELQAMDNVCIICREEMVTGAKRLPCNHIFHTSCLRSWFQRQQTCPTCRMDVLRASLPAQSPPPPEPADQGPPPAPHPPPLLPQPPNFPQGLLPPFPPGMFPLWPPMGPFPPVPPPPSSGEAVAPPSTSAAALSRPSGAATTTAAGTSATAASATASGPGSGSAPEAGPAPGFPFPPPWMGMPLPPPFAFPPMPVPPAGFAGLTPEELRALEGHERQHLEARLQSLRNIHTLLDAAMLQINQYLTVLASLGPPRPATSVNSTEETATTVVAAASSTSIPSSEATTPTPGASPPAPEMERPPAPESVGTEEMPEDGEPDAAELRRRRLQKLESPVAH

## COc1ccc(-c2cc(=O)c3c(OC)cc(OC)cc3o2)cc1 [TF]
  Kd: 8.02 µM
